# From US6251940A, “Inflammatory cell inhibitors” (British Biotech Pharmaceuticals Ltd., priority 1998, dated 2001)
# Tests used:
# Human PBMCs [1] = assay: Inhibition of mitogen (PWM)-induced lymphocyte proliferation of PBMCs; assay type: cell-based; details: PBMC, PWM 2.5 μg/ml, 48 hrs, tritiated thymidine, read-out: IC50, PBMCs stimulated with PWM
# Procedure: Inhibition of Mitogen-induced Lymphocyte Proliferation
# The compounds of examples 1, 2, 3, 6, 19, 39, 40 and 43 above were tested for their effects on the proliferation of peripheral blood mononuclear cells (PBMCs) in vitro. The PBMCs were activated with Pokeweed mitogen (PWM), a potent activator of lymphocytes and monocytes which leads to B and T lymphocyte proliferation.
# Human PBMCs (2×10^4 cells/well), purified from whole blood by centrifugation through ficoll/hypaque, were incubated with PWM (2.5 μg/ml) and compounds 1 and 2 at a range of dilutions in 96 well microtitre plates for 48 hrs at 37° C. in a 5% CO2 incubator. DMSO was run in each assay as a vehicle control. 0.5 μCuries of tritiated thymidine in 40 μl (Amersham) were added to each well during the final 18 hrs. The cells were then harvested on glass fibre pads using a Tomtech cell harvester and, after adding scintillant to the pad (Meltilex) they were placed in a Wallac MicroBeta plate counter. The results obtained are in counts per minute and reflect the level of tritiated thymidine incorporation into the cells and therefore the level of cell proliferation. The percentage proliferation in test wells compared to control wells was calculated and the inhibition curves plotted. The IC50 values were calculated from the inhibition curves.
# Human PBMCs [2] = assay: Inhibition of antigen (PPD)-induced T lymphocyte proliferation of PBMCs; assay type: cell-based; details: PBMC, PPD 1 μg/ml, 72 hrs, tritiated thymidine, read-out: IC50, PBMCs stimulated with PPD
# Human PBMCs [3] = assay: Inhibition of anti-CD3-induced T lymphocyte proliferation of PBMCs; assay type: cell-based; details: 48 hrs; for Inhibition of cell proliferation (in words), anti-CD3: range of dilutions
# Procedure: Inhibition of Anti-CD3-induced T Lymphocyte Activation and Proliferation
# (§1) The compounds of examples 1, 6, 19, 39, 40 and 43 above were tested for its effects on anti-CD3-driven proliferation of peripheral blood mononuclear cells (PBMCs) in vitro. The PBMCs were activated with anti-CD3 antibody which directly activates T lymphocytes via the T cell receptor CD3 component, although other cells do contribute to T cell proliferation by co-stimulation and growth factor production. Human PBMCs (5×10^4cells/well), purified from whole blood by centrifugation through ficoll/hypaque, were incubated in monoclonal anti-CD3 antibody-coated wells (5 μg/ml) and compound 1 at a range of dilutions in a 96 well microtitre plate for 48 hrs at 37° C. in a 5% CO2 incubator. DMSO was run in each assay as a vehicle control. 0.5 μCuries of tritiated thymidine in 40 μl (Amersham) were added to each well during the final 18 hrs. The cells were then harvested on glass fibre pads using a Tomtech cell harvester and, after adding scintillant to the pad (Meltilex) they were placed in a Wallac MicroBeta plate counter. The results obtained are in counts per minute and reflect the level of tritiated thymidine incorporation into the cells and therefore the level of cell proliferation. The percentage proliferation in test wells compared to control wells was calculated. The results were plotted and the IC50 value calculated.
# CD69 = CD69 expression on T cells activated by anti-CD3 (FACS); assay type: cell-based, Human; details: 4 hrs treatment; untreated cells 68%
# Procedure: as §1, with “The results obtained are in counts per minute and reflect the level of tritiated thymidine incorporation into the cells and therefore the level of cell proliferation.” left out
# CD69 is a membrane marker of T cell activation. The level of CD69 expression on the membranes of T cells activated by anti-CD3 was therefore measured by fluorescence activated cell (FACS) flow cytometry.
# TNF [4] = assay: Inhibition of production of TNF, PWM-activated PBMCs (ELISA); assay type: cell-based, Human; details: 48 hrs
# Procedure: (§2) Inhibition of Production of TNF
# (§3) The compound of example 3 above was tested for its effect on the production of the pro-inflammatory cytokine TNF. TNF is released from various cells (monocytes and B lymphocytes) following activation by mitogen or antigen. The production of this inflammatory mediator in the supernatant of activated PBMCs was measured by ELISA.
# (§4) Human PBMCs (2-5×10^6 cells/well), purified from whole blood by centrifugation through ficoll/hypaque, were incubated with either PWM (2.5 μg/ml) or PPD (1 μg/ml) and compound example 3 at 10 μM in a 24 well microtitre plates for 48 hrs at 37° C. in a CO2 incubator. DMSO was run in each assay as a vehicle control. Supernatant was removed after 48 hrs and microfuged at 10,000 rpm for 2 minutes. Supematant was removed, aliquotted and stored at -70° C. until tested.
# TNF [5] = assay: Inhibition of production of TNF, PPD-activated PBMCs (ELISA); assay type: cell-based, Human; details: 48 hrs
# Procedure: as §2, §3, §4
# TNF alpha = assay: Inhibition of TNF production in PWM-activated whole blood; assay type: cell-based; details: 10 μM, PWM-activated whole blood diluted 1/5, 24 hours; for TNF alpha: vehicle 1031 pg/ml
# Procedure: as §4
# In a modification of the above procedure, the compounds of Examples 19 and 40 were tested at 10 μM for inhibition of TNF production in PWM-activated whole blood diluted 1/5 in RPMI containing 1% nutridoma. The supernatants were tested after 24 hours of culture.
# [6] = system: Experimental Autoimmune Neuritis; assay: Experimental Autoimmune Neuritis animal model; assay type: in vivo, Male Lewis rats; details: 100 mg.kg^-1 ip uid, day 1 to 14; day 15 post-inoculation; groups of 9
Structure (SMILES),IC50 (Human PBMCs [1]) [nM],IC50 (Human PBMCs [2]) [nM],"Inhibition of cell proliferation (in words), anti-CD3 (Human PBMCs [3])",further results
"C=CC[C@H](C(=O)NO)[C@@H](CC(C)C)C(=O)N[C@@H](Cc1ccccc1)C(=O)OC [Example 1, 2S-(3S-Hydroxycarbamoyl-2R-isobutyl-hex-5-enoylamino)-3-phenylpropionic acid methyl ester]",4700,2000,inhibited cell proliferation in a dose related fashion,"IC50 (Human PBMCs [3]; Homo sapiens, PBMC, anti-CD3 antibody-coated wells 5 μg/ml, tritiated thymidine, read-out: IC50, PBMCs stimulated with ANTI-CD3): 2100 nM; expression of CD69 (% of T cells) (CD69): 48%"
"C=CC[C@H](C(=O)NO)[C@@H](CC(C)C)C(=O)N[C@@H](Cc1ccccc1)C(=O)OCC [Example 2, 2S-(3S-Hydroxycarbamoyl-2R-isobutyl-hex-5-enoylamino)-3-phenylpropionic acid ethyl ester]",4800,,,
"C=CC[C@H](C(=O)NO)[C@@H](CC(C)C)C(=O)N[C@@H](Cc1ccccc1)C(=O)OC(C)C [Example 3, 2S-(3S-Hydroxycarbamoyl-2R-isobutyl-hex-5-enoylamino)-3-phenylpropionic acid isopropyl ester]",2400,1800,,"TNF, ACTIVATED PWM (TNF [4]; 10 μM, dmso 1390 pg/ml): 495 pg/mL; inhibition at 10 µM (TNF [4]; Homo sapiens, PBMC, versus dmso, read-out: reduction of the level of TNF production, PWM system): 64%; TNF, ACTIVATED PPD (TNF [5]; 10 μM, dmso 50 pg/ml): 15 pg/mL; inhibition at 10 µM (TNF [5]; Homo sapiens, PBMC, versus dmso, read-out: reduction of the level of TNF production, PPD system): 70%"
"CC(C)C[C@H](CC(=O)NO)C(=O)N[C@@H](Cc1ccccc1)C(=O)OC(C)C [Example 6, 2S-(2R-Hydroxycarbamoylmethyl-4-methyl-pentanoylamino)-3-phenyl-propionic acid isopropyl ester]",,,inhibited cell proliferation in a dose related fashion,
"C=CC[C@H](C(=O)NO)[C@@H](CC(C)C)C(=O)N[C@@H](Cc1ccccc1)C(=O)OC1CCCC1 [Example 19, 2S-(3S-Hydroxycarbamoyl-2R-isobutyl-hex-5-enoylamino)-3-phenylpropionic acid cyclopentyl ester]",,1100,inhibited cell proliferation in a dose related fashion,TNF production (in words) (TNF alpha): reduced the level of TNF production; TNF alpha (TNF alpha): 489 pg/mL; reduction in mean clinical score compared to vehicle group [6]: 93%
"C=CC[C@H](C(=O)NO)[C@@H](CC(C)C)C(=O)N[C@@H](COC(C)(C)C)C(=O)OC1CCCC1 [Example 39, 3-tert-Butoxy-2S-(3S-hydroxycarbamoyl-2R-isobutyl-hex-5-enoylamino)-propionic acid cyclopentyl ester]",,,inhibited cell proliferation in a dose related fashion,
"C=CC[C@H](C(=O)NO)[C@@H](CC(C)C)C(=O)N[C@H](C(=O)OC1CCCC1)c1ccccc1 [Example 40, 2S-(3S-Hydroxycarbamoyl-2R-isobutyl-hex-5-enoylamino)-2-phenylethanoic acid cyclopentyl ester]",,,inhibited cell proliferation in a dose related fashion,TNF production (in words) (TNF alpha): reduced the level of TNF production; TNF alpha (TNF alpha): 600 pg/mL
"CC(C)C[C@@H](C(=O)NC(C(=O)OC1CCCC1)c1ccccc1)[C@H](O)C(=O)NO (stereo partly drawn) [Example 43, 2-[2R-(S-Hydroxy-hydroxycarbamoyl-methyl)-4-methyl-pentanoylamine]-2-phenyl-ethanoic acid cyclopentyl ester]",,,inhibited cell proliferation in a dose related fashion,
